Measurements from ChEMBL document CHEMBL3507680, “University of Dundee, Gates Library screen for HepG2 cell viability”.

test: Human HepG2 cell viability assay in 384 well format; assay type: toxicity, cell-based; design: dose 125 nL, time 70.5 hour; concentration not given beside the values; settings: HepG2 cells, read-out: Inhibition

Compound	cytotoxicity at 70.5 h [%]
Cc1cccc(N2CCN(Cc3nc(CC4CC4)no3)CC2)n1	1.5
CCN(Cc1ccccn1)Cc1cc(Cl)ccc1OC	2.41
CCN(C)S(=O)(=O)NCC1CCN(Cc2ccccc2F)C1 (stereo unspecified)	-10.5
CCC1CN(C(=O)c2ccccc2N(C)C)CCN1C(C)C (stereo unspecified)	1.87
COCc1cn(C2CCN(C(=O)c3ccc(F)c(C)c3)CC2)nn1	-6.36
O=C(NCc1c(F)cccc1Cl)c1cc(CN2CCCC(O)C2)on1 (stereo unspecified)	-13.8
O=c1cc(N2CCc3ccccc3C2)cnn1CCC1CCOC1 (stereo unspecified)	1.4
COCCN(C)CC(=O)N1C[C@@H](NC(C)=O)[C@H](c2ccc(OC)cc2)C1	-17.6
CCN(CC)C(=O)[C@@H]1C[C@H](N)CN1c1nnc(-c2ccccc2)s1	18.2
Cc1nc(C(C)NC(=O)c2cn(Cc3ccc(Cl)cc3)nn2)n[nH]1 (stereo unspecified)	-1.77
OCCC1CN(c2nc(-c3ccncc3)nc3c2CCNCC3)CCO1 (stereo unspecified)	2.55
CN1CCCC(CCC(=O)N2CCc3[nH]c(-c4ccccc4)nc3C2)C1 (stereo unspecified)	20.8
Cc1n[nH]c(C)c1CC(=O)N1CCN(C)C2(CCNC(=O)CC2)C1 (stereo unspecified)	-4.03
O=C1[C@@H]2CN(c3ncnc4[nH]ccc34)C[C@]2(C(=O)O)CN1CC1CC1	-9.8
O=C(NCCn1cccc1)C1CCCN(C2CCCC2)C1 (stereo unspecified)	7.15
CCCC(C)NCc1cccnc1N1CCN(c2ccccn2)CC1 (stereo unspecified)	-5.62
Cc1[nH]c(-c2ccccc2)nc1C(=O)N1CCc2[nH]cnc2C1C(=O)O (stereo unspecified)	-8.84
CCCOC(=O)NCCC1CN(c2cnn(C)c(=O)c2)CCO1 (stereo unspecified)	-10.5
COCCC1(CO)CCCN(Cc2cc(C(F)(F)F)ccc2F)C1 (stereo unspecified)	-1.42
O=C(COc1cccc(F)c1)N1C[C@@H](CN2CCCC2)C[C@H](CO)C1	0.446
COc1ccc2c(c1)OCC(CNC(=O)c1cc[nH]c1C)C2 (stereo unspecified)	-19.4
CCNC(=O)[C@@H]1C[C@H](N)CN1C(=O)C1(c2ccc(OC)cc2)CCCC1	-10.3
CCn1cc(CN2CCC(NS(C)(=O)=O)CC2)cc1C#N	-3.22

Compound	cytotoxicity at 70.5 h [%]
O=C(NCCCOC1CCCCC1)C1NCCc2[nH]cnc21 (stereo unspecified)	-3.08
CO[C@H]1CN(Cc2c(C)ccc3ncccc23)CC[C@H]1N	2.94
CCn1cnnc1Cc1nc2c([nH]1)CC(c1ccc(Cl)cc1)CNC2=O (stereo unspecified)	6.53
COc1ncc(C(=O)N2CCCC3(C=Cc4ccccc4O3)CC2)cn1 (stereo unspecified)	13.5
COc1nc2c(cc1C(=O)N1CCCOC(CN3CCCC3)C1)CCC2 (stereo unspecified)	-13.7
Cc1ccc(C(=O)N2CCC3(CCC(=O)N(CCCO)C3)CC2)c(O)c1	-8.79
Cc1cccnc1CCNCC1(O)CCCN(CC2CCCCC2)C1=O (stereo unspecified)	35.9
COCc1cc(N2C[C@@H](C)[C@](O)(C3CC3)C2)ncn1	0.518
COC1CCCN(CCCc2cn[nH]c2)C1 (stereo unspecified)	0.195
COc1ccc(C(=O)N2CC[C@@H](N3CCC(O)CC3)[C@H](O)C2)cc1C	-3.31
Cc1ccoc1C(=O)N1CCC(n2cc(-c3ccsc3)nn2)CC1	-12.5
CCN(CC)CCn1cnc(-c2ccccc2)c1-c1cnn(CC)c1	-10.7
CC(=O)N[C@@H]1CN(CC(=O)NCc2ccccc2C)C[C@H]1C(C)C	-6.75
C=C(C)COc1cccc(CNC(CC(C)C)c2ncnn2C)c1 (stereo unspecified)	-3.16
COc1cccc(CN(C)Cc2[nH]c3ccccc3c2C)c1O	1.38
Cc1ccc(CN(Cc2ccncc2)C2CCN(C)CC2)s1	15.5
CSc1cccc(CNC(=O)[C@H]2CNC[C@@H](C(=O)N3CCOCC3)C2)c1	-4.8
NC(=O)c1csc(N2CCCC(c3nc4ccccc4[nH]3)C2)n1 (stereo unspecified)	-2.59
CC(C)(C)N1CC(c2ncc(-c3ccc4c(c3)OCCO4)[nH]2)CC1=O (stereo unspecified)	-2.24
Cc1nc2c(c(N3CCC4(CCCNC4=O)C3)n1)CCC2 (stereo unspecified)	-4.16
CC(=O)N1Cc2cnc(C(C)(C)C)nc2C1	19.2
Cc1nnc(SCCCNC(=O)c2ccc3c(c2)OCO3)s1	-9.91
O=C1C[C@H]2CC[C@@H](CN1)N2C(=O)Cc1ccsc1	-8.54

Compound	cytotoxicity at 70.5 h [%]
CN1N=C(C(=O)N2CCCC(CCc3ccccc3)C2)CCC1=O (stereo unspecified)	-9.61
Cc1ccccc1C(=O)NC[C@@H]1CCN(C(=O)c2cscn2)C[C@H]1O	18.9
CCCc1ccc(C(=O)N2CCc3c(nc(C)nc3N(C)C)C2)cc1	-0.957
CCOCC(=O)N1C[C@H]2CC[C@@H]1CN(C(=O)c1ccncc1)C2	-1.67
CC(C)c1cc(N[C@@H](CO)C(N)=O)n2nccc2n1	31.2
CC(NC(=O)c1ccc(=O)n(C)c1)c1ccccc1-n1cccn1 (stereo unspecified)	-19.9
CCNC(=O)C1CCN(c2cc(-c3ccccc3F)nc3ccnn23)C1 (stereo unspecified)	14.5
Cc1ccc(OC2(C(=O)O)CCN(C/C=C/c3ccco3)CC2)cn1	-5.05
Cc1oc(-c2ccoc2)nc1CN1CCC[C@H]1CO	-3.95
O=C(C1CNCCO1)N1CCC(c2cc(N3CCCC3)ncn2)CC1 (stereo unspecified)	14.8
CC(C)Cc1nc(CN2CCc3onc(-c4cccc(F)c4)c3C2)no1	-2.69
CC(C)[C@@H]1CN(CCOc2ccc(Cl)cc2)C[C@H]1NS(C)(=O)=O	-3.97
O=C(c1scc2c1OCCO2)N1CCN(Cc2cccc(F)c2)CC1	20.1
CN1CCN(Cc2ccccc2Cl)CC12CCC(=O)N(CC1CC1)CC2 (stereo unspecified)	0.313
CCc1nc(CN(C)C(=O)c2cc(CN(CC)CC)c(CC)o2)no1	-11.7
c1ccc(-c2ncc(CN3CCC4(CCNCC4)C3)cn2)cc1	-7.74
c1ccc(CNc2ncc(CN3CC[C@H]4CC[C@@H](C3)N4)cn2)cc1	18.2
CCn1ncc(CN2CCCC(C(=O)c3ccc(Cl)cc3)C2)c1C (stereo unspecified)	-6.46
NC(=O)CN1CC2(CCC1=O)CCN(Cc1ccccc1F)CC2	-5.65
CN(Cc1noc2c1CCCC2)C(=O)Nc1ccc2oc(=O)n(C)c2c1	20.6
CSCCCNc1ncnc2cccc(F)c12	23.2
CC(=O)c1cccc(OCc2cc(C(=O)N3CCCCO3)n[nH]2)c1	-15.4
COc1cccc2c1OCCCN(Cc1ccc(C(N)=O)c(=O)[nH]1)C2	-8.27

Compound	cytotoxicity at 70.5 h [%]
CCN(CC)CCn1cnc(-c2ccccc2)c1-c1ncc[nH]1	-10.3
Cc1cc(=O)c2ccccc2n1CC1CCCN(C)C1 (stereo unspecified)	31.9
CCc1nc(C)c(CN2CCOC(Cc3ccccc3Cl)C2)[nH]1 (stereo unspecified)	-6.82
CC(C)(C)c1ncc2c(n1)CN(C(=O)c1ccc(-n3cnnn3)cc1)C2	-3.62
CCc1ccc2nc(-c3cnn(C)c3)cc(C(=O)N3CCCC3)c2c1	-5.34
CCc1ocnc1C(=O)N1CCN(c2ccc3ccccc3c2)CC1	4.76
Cc1nc(N(C)C)ncc1C(=O)N[C@@H]1CCc2ccccc21	-11.5
Cc1nnc(NC(=O)N2CCCCC2CCO)s1 (stereo unspecified)	-0.98
CCCn1cnnc1CN(C)C(=O)CCC(=O)Nc1cc(C)ccc1F	-6.48
CSCCC(=O)N1CCC(c2nccn2CCN(C)C)CC1	-2.46
COCc1nc(CN2C(=O)OC[C@@H]2C(C)C)no1	-6.26
CCOc1ccccc1CN(CC)Cc1ccc(S(C)(=O)=O)cc1	-5.03
CN1CCCC(CCC(=O)N2CCc3onc(C(=O)N(C)C)c3C2)C1 (stereo unspecified)	-1.71
CCC(CO)N(Cc1ccsc1)Cc1ccc(-c2ccn[nH]2)s1 (stereo unspecified)	-5.61
CCn1ccnc1CNc1nccc(-c2cn(C)nc2C)n1	-2.79
COc1ccc(OC2CCN(c3ccncc3)CC2)cc1	-3.12
CC(C)=CCCC1(C)CCC(=O)N(CCc2csc(N)n2)C1 (stereo unspecified)	-5.28
COC(=O)c1ccc(NC(=O)CNCc2ccco2)cc1	-5.33
Cc1noc(-c2ccc(N3CCCC(C(=O)c4nccn4C)C3)nc2)n1 (stereo unspecified)	-8.49
CN(Cc1ccsc1)C(=O)c1n[nH]c(N)c1-c1ccccc1	-1.37
COc1ccc2c(c1)C(C(=O)N(C)CCCc1cnn(C)c1)CC(=O)N2 (stereo unspecified)	-12.9
CC(C)CC(=O)N1CCCCC(NC(=O)CCc2cccnc2)C1 (stereo unspecified)	-1.04
Cc1cc(C)n(CC(C)Nc2nc(C)nc3c2CCNC3)n1 (stereo unspecified)	-8.55

Compound	cytotoxicity at 70.5 h [%]
Cc1cnc(N2CCCC3(CCOCC3)C2)nc1	-1.55
CN(C)c1ccc(C(=O)N2Cc3cnc(C(C)(C)C)nc3C2)cc1	-2.91
CC(C)c1noc(CN(C)C(=O)C2COc3ccccc3C2)n1 (stereo unspecified)	-7.56
CC(c1ccon1)N(C)Cc1cc(O)c2cc(F)ccc2n1 (stereo unspecified)	-10.6
CC(C)[C@H]1CN(S(=O)(=O)c2cccnc2)C[C@@H]1N	0.829
COc1cccc(OCCN2CC[C@@](O)(C3CCOCC3)[C@H](C)C2)c1	1.27
CCc1ccccc1OCCN(C)C(=O)CCN1CCCO1	-3.75
OCCC1CN(c2ncnc3[nH]cnc23)CCN1Cc1cccs1 (stereo unspecified)	-3.01
Cc1cccc(CN2C[C@H]3CC[C@@H]2CN(Cc2[nH]cnc2C)C3)n1	-5.25
CCc1cn[nH]c1C1CCN(c2cc(C)c3cc(OC)ccc3n2)CC1	1.76
COCCN1CCC(CNc2nccc(-c3cnn(C)c3)n2)CC1	-3.27
Fc1ccc(Cn2ncc3c2CN(c2ncccn2)C3)cc1	-0.987
Cc1cc2cccc(NC(=O)N3CCC(N4CCSCC4)CC3)c2o1	-11
CC(C)OC(=O)N1CCCC(c2nccn2Cc2ccncc2)C1 (stereo unspecified)	-8
O=C1CCC2(CCCN(C(=O)c3ccc[nH]3)C2)CN1Cc1cccnc1 (stereo unspecified)	-3.97
COc1nc2ccn(CCc3cc(O)nc(C)n3)c(=O)c2cc1C#N	-7.61
CN(C)C(=O)CN1CC=C(c2cnn(Cc3ccccc3)c2)CC1	-15.3
O=C(O)c1ccnc(-c2ccnc(NCCc3ccc(F)cc3)n2)c1	-5.83
COc1nc2c(cc1C(=O)NCCc1nc3ccccc3s1)CCC2	-6.58
